Laboratory results as given in PubChem BioAssay AID248 (DTP/NCI, 2004).
Toxic doses and inconclusive results are not listed.

Test system: L1210 leukemia ip in BDF1 mice, survival T/C
Experiment: NCI In Vivo Anticancer Drug Screen. Data for tumor model L1210 Leukemia (intraperitoneal) in B6D2F1 (BDF1) mice
Conditions: higher = longer survival
Outline: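 Ratio derived from survival: compound-dosed mice over vehicle-dosed mice, all bearing a transplantable tumor.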

With `CC(C)CCCC(C)C1CCC2C3CC=C4CC(OC(=O)Nc5ccc(S(=O)(=O)c6ccc(F)cc6)cc5)CCC4(C)C3CCC12C` (stereo not drawn) as the compound, how does the T/C (endpoint: mean survival time, dose: 100.0 mg/kg/injection, schedule: Q01DX001 (sc), vehicle: steriod suspending solution) read?
Its T/C is 89 % of control.

What about the T/C (endpoint: mean survival time, dose: 200.0 mg/kg/injection, schedule: Q01DX001 (sc), vehicle: steriod suspending solution) of the same compound?
The T/C was 92 % of control.

What about the T/C (endpoint: mean survival time, dose: 400.0 mg/kg/injection, schedule: Q01DX001 (sc), vehicle: steriod suspending solution) of the same compound?
Its T/C is 100 % of control.

For `Cc1cc(NCCCCCCNc2cc(C)nc3ccc(N)cc23)c2cc(N)ccc2n1`, which T/C (endpoint: mean survival time, dose: 4.7 mg/kg/injection, schedule: Q01DX009 (ip), vehicle: saline with Tween-80) is on record?
The T/C was 117 % of control.

What about the T/C (endpoint: mean survival time, dose: 16.5 mg/kg/injection, schedule: Q01DX009 (ip), vehicle: saline) of the same compound?
Its T/C is 118 % of control.

And the T/C (endpoint: mean survival time, dose: 18.75 mg/kg/injection, schedule: Q01DX009 (ip), vehicle: saline with Tween-80)?
Its T/C is 152 % of control.

And the T/C (endpoint: mean survival time, dose: 37.5 mg/kg/injection, schedule: Q01DX009 (ip), vehicle: saline with Tween-80)?
Its T/C is 176 % of control.

And the T/C (endpoint: mean survival time, dose: 37.5 mg/kg/injection, schedule: Q01DX009 (ip), vehicle: saline)?
Its T/C is 164 % of control.

And the T/C (endpoint: mean survival time, dose: 75.0 mg/kg/injection, schedule: Q01DX009 (ip), vehicle: acetone)?
The T/C was 160 % of control.

What about the T/C (endpoint: mean survival time, dose: 75.0 mg/kg/injection, schedule: Q01DX009 (ip), vehicle: saline with Tween-80) of the same compound?
Its T/C is 150 % of control.

And the T/C (endpoint: mean survival time, dose: 75.0 mg/kg/injection, schedule: Q01DX009 (ip), vehicle: saline)?
The T/C was 182 % of control.

What about the T/C (endpoint: mean survival time, dose: 150.0 mg/kg/injection, schedule: Q01DX009 (ip), vehicle: acetone) of the same compound?
The T/C was 161 % of control.

What about the T/C (endpoint: mean survival time, dose: 150.0 mg/kg/injection, schedule: Q01DX009 (ip), vehicle: saline with Tween-80) of the same compound?
The T/C was 102 % of control.

And the T/C (endpoint: mean survival time, dose: 180.0 mg/kg/injection, schedule: Q04DX003 (ip), vehicle: Klucel (hydroxypropylcellulose) (HPC))?
The T/C was 160 % of control.

And the T/C (endpoint: mean survival time, dose: 180.0 mg/kg/injection, schedule: Q04DX003 (ip), vehicle: saline with Tween-80)?
The T/C was 152 % of control.

What about the T/C (endpoint: mean survival time, dose: 266.0 mg/kg/injection, schedule: Q04DX003 (ip), vehicle: saline with Tween-80) of the same compound?
The T/C was 111 % of control.

And the T/C (endpoint: mean survival time, dose: 300.0 mg/kg/injection, schedule: Q01DX009 (ip), vehicle: saline with Tween-80)?
The T/C was 94 % of control.

And the T/C (endpoint: mean survival time, dose: 400.0 mg/kg/injection, schedule: Q04DX003 (ip), vehicle: Klucel (hydroxypropylcellulose) (HPC))?
Its T/C is 172 % of control.

What about the T/C (endpoint: mean survival time, dose: 600.0 mg/kg/injection, schedule: Q04DX003 (ip), vehicle: Klucel (hydroxypropylcellulose) (HPC)) of the same compound?
Its T/C is 197 % of control.

What about the T/C (endpoint: mean survival time, dose: 600.0 mg/kg/injection, schedule: Q04DX003 (ip), vehicle: saline with Tween-80) of the same compound?
Its T/C is 198 % of control.

And the T/C (endpoint: median survival time, dose: 4.0 mg/kg/injection, schedule: Q01DX001 (ip), vehicle: lactic acid)?
Its T/C is 101 % of control.

What about the T/C (endpoint: median survival time, dose: 8.0 mg/kg/injection, schedule: Q01DX001 (ip), vehicle: lactic acid) of the same compound?
Its T/C is 100 % of control.

And the T/C (endpoint: median survival time, dose: 16.0 mg/kg/injection, schedule: Q01DX001 (ip), vehicle: lactic acid)?
The T/C was 103 % of control.

And the T/C (endpoint: median survival time, dose: 16.0 mg/kg/injection, schedule: Q01DX001 (oral), vehicle: citric acid)?
The T/C was 97 % of control.

And the T/C (endpoint: median survival time, dose: 16.0 mg/kg/injection, schedule: Q01DX001 (oral), vehicle: lactic acid)?
Its T/C is 100 % of control.

What about the T/C (endpoint: median survival time, dose: 32.0 mg/kg/injection, schedule: Q01DX001 (ip), vehicle: lactic acid) of the same compound?
The T/C was 111 % of control.

What about the T/C (endpoint: median survival time, dose: 32.0 mg/kg/injection, schedule: Q01DX001 (oral), vehicle: citric acid) of the same compound?
Its T/C is 103 % of control.

And the T/C (endpoint: median survival time, dose: 32.0 mg/kg/injection, schedule: Q01DX001 (oral), vehicle: lactic acid)?
Its T/C is 100 % of control.

What about the T/C (endpoint: median survival time, dose: 64.0 mg/kg/injection, schedule: Q01DX001 (ip), vehicle: Klucel (hydroxypropylcellulose) (HPC)) of the same compound?
Its T/C is 120 % of control.

And the T/C (endpoint: median survival time, dose: 64.0 mg/kg/injection, schedule: Q01DX001 (oral), vehicle: citric acid)?
The T/C was 102 % of control.

What about the T/C (endpoint: median survival time, dose: 64.0 mg/kg/injection, schedule: Q01DX001 (oral), vehicle: lactic acid) of the same compound?
Its T/C is 103 % of control.

What about the T/C (endpoint: median survival time, dose: 128.0 mg/kg/injection, schedule: Q01DX001 (ip), vehicle: Klucel (hydroxypropylcellulose) (HPC)) of the same compound?
The T/C was 153 % of control.

And the T/C (endpoint: median survival time, dose: 128.0 mg/kg/injection, schedule: Q01DX001 (oral), vehicle: citric acid)?
The T/C was 97 % of control.

What about the T/C (endpoint: median survival time, dose: 128.0 mg/kg/injection, schedule: Q01DX001 (oral), vehicle: lactic acid) of the same compound?
The T/C was 95 % of control.

And the T/C (endpoint: median survival time, dose: 256.0 mg/kg/injection, schedule: Q01DX001 (ip), vehicle: Klucel (hydroxypropylcellulose) (HPC))?
The T/C was 175 % of control.

And the T/C (endpoint: median survival time, dose: 256.0 mg/kg/injection, schedule: Q01DX001 (oral), vehicle: citric acid)?
The T/C was 87 % of control.

And the T/C (endpoint: median survival time, dose: 256.0 mg/kg/injection, schedule: Q01DX001 (oral), vehicle: lactic acid)?
Its T/C is 94 % of control.

And the T/C (endpoint: median survival time, dose: 512.0 mg/kg/injection, schedule: Q01DX001 (ip), vehicle: Klucel (hydroxypropylcellulose) (HPC))?
Its T/C is 180 % of control.
